# Test results as given in PubChem BioAssay (NCI).
#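 In this assay, cells in 96-well plates receive the compound at five concentrations for 48 hours. Endpoints are linearly interpolated between the surrounding concentrations. Abbreviation: GI50, concentration required for 50% inhibition of growth. TGI marks complete inhibition of growth.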
# Assays:
# Experiment in all cases: NCI-60 cell line screen, 48 h
# A549 NSCLC = test system: A549 NSCLC
# BT-549 breast = test system: BT-549 breast
# HT29 colon = test system: HT29 colon
# M14 melanoma = test system: M14 melanoma
# MCF7 breast = test system: MCF7 breast
# MDA-MB-435 = test system: MDA-MB-435
# MOLT-4 leukemia = test system: MOLT-4 leukemia
# PC-3 prostate = test system: PC-3 prostate
# RPMI-8226 leukemia = test system: RPMI-8226 leukemia
# TK-10 renal = test system: TK-10 renal
Compound,TGI (A549 NSCLC),TGI (BT-549 breast),TGI (HT29 colon),TGI (M14 melanoma),TGI (MCF7 breast),TGI (MDA-MB-435),TGI (MOLT-4 leukemia),TGI (PC-3 prostate),TGI (RPMI-8226 leukemia),TGI (TK-10 renal),GI50 (A549 NSCLC),GI50 (BT-549 breast),GI50 (HT29 colon),GI50 (M14 melanoma),GI50 (MCF7 breast),GI50 (MDA-MB-435),GI50 (MOLT-4 leukemia),GI50 (PC-3 prostate),GI50 (RPMI-8226 leukemia),GI50 (TK-10 renal)
CNC1C(O)C(OC2C(N)CC(N)C(OC3OC(CN)=CCC3N)C2O)OCC1(C)O (stereo unspecified),> 100 µM,> 100 µM,> 100 µM,> 100 µM,> 100 µM,> 100 µM,> 100 µM,> 100 µM,> 100 µM,–,–,–,–,–,–,–,–,–,–,–
CSc1nc(NC2OCC(OC(C)=O)C(OC(C)=O)C2OC(C)=O)c(N=C(C)C(C)=O)c(=O)n1C (stereo unspecified),> 100 µM,–,> 100 µM,> 100 µM,–,–,> 100 µM,–,> 100 µM,> 100 µM,–,–,–,–,–,–,–,–,–,–
O=C(Cc1nc2ccccc2s1)Nc1ccc(Cl)cc1,> 100 µM,–,> 100 µM,> 100 µM,–,–,> 100 µM,–,–,> 100 µM,–,–,–,–,–,–,–,–,–,–
C[N+](C)(C)CC(=O)N/N=C(\CCC(=O)NCCc1ccccc1)CC(=O)c1ccccc1,> 100 µM,–,> 100 µM,> 100 µM,–,–,> 100 µM,–,> 100 µM,> 100 µM,–,–,–,–,–,–,–,–,–,–
CCN(CC)c1ccc(C2CC(c3cc(OC)c(OC)c(OC)c3)=NN2)cc1 (stereo unspecified),> 32.2 µM,> 22.9 µM,> 43 µM,> 100 µM,–,> 100 µM,8.14 µM,35.2 µM,7.91 µM,> 100 µM,0.591 µM,1.03 µM,0.365 µM,1.16 µM,0.227 µM,0.404 µM,1.56 µM,0.342 µM,0.632 µM,36 µM
COC(=O)C(Cc1cnc[nH]1)NC(=O)CNC(=O)CCCn1c(=O)c2c3ccccc3n(C)c2n2nnc(-c3ccccc3)c12 (stereo unspecified),> 100 µM,> 100 µM,> 100 µM,> 100 µM,> 100 µM,> 100 µM,> 100 µM,> 100 µM,> 100 µM,> 100 µM,> 100 µM,> 100 µM,> 100 µM,> 100 µM,> 100 µM,> 100 µM,> 100 µM,30.1 µM,> 100 µM,> 100 µM
C=C(C)[C@@H]1CC[C@]2(C(N)=O)CC[C@]3(C)[C@H](CC[C@@H]4[C@@]5(C)CC[C@H](O)C(C)(C)[C@@H]5CC[C@]43C)[C@@H]12,5.39 µM,19.7 µM,7.42 µM,> 100 µM,11.2 µM,> 100 µM,18.3 µM,14.7 µM,24.9 µM,7.59 µM,2.11 µM,3.99 µM,2.56 µM,6.05 µM,2.91 µM,8.65 µM,3.43 µM,2.83 µM,3.53 µM,2.79 µM
COc1cc2c3c(c4ccc(OC)c(OC)c4c2cc1OC)CN1CCC[C@@H]1C3,–,2.36 µM,0.593 µM,2.56 µM,> 20.3 µM,5.83 µM,0.252 µM,6.58 µM,–,3.88 µM,–,–,–,–,–,–,–,–,–,–
Nc1nc(Cl)cc(NCCCCCNc2cc(Cl)nc(N)n2)n1,> 100 µM,–,> 100 µM,> 100 µM,–,–,> 100 µM,–,> 100 µM,> 100 µM,–,–,–,–,–,–,–,–,–,–
O=C(NCCO)c1cc2c(cn1)[nH]c1ccccc12,> 100 µM,–,> 100 µM,> 100 µM,–,–,> 100 µM,–,> 100 µM,> 100 µM,–,–,–,–,–,–,–,–,–,–
CCOC(CCCNCCCn1c2c(c3cc(OC)c(OC)cc3c1=O)C(=O)c1cc3c(cc1-2)OCO3)OCC,11.8 µM,–,10.9 µM,11.1 µM,9.3 µM,13.9 µM,–,11.3 µM,8.45 µM,13.2 µM,5.73 µM,–,5.12 µM,5.25 µM,1.19 µM,7.32 µM,–,5.38 µM,0.308 µM,6.79 µM
CC1=C(C(=O)Nc2ccccc2)C(c2ccc([N+](=O)[O-])cc2)C(C(=O)Nc2ccccc2)=C(C)N1,> 100 µM,–,41.3 µM,41.8 µM,–,–,> 100 µM,–,73.3 µM,> 100 µM,–,–,–,–,–,–,–,–,–,–
O=Cc1ccc(-c2ccc(-c3nc4ccccc4[nH]3)cc2)s1,> 100 µM,52.4 µM,> 100 µM,43.2 µM,–,69.2 µM,> 100 µM,40.3 µM,–,69.1 µM,40.4 µM,15.6 µM,38.9 µM,18.2 µM,–,26.4 µM,32.4 µM,18.2 µM,–,23.5 µM
CC(C)N(C(=O)C1(C)CC1)C(C)C,> 100 µM,–,> 100 µM,> 100 µM,–,–,> 100 µM,–,> 100 µM,–,–,–,–,–,–,–,–,–,–,–
O=C1Nc2cc(Cl)ccc2N=CC1NC(=O)C(c1ccccc1)c1ccccc1Cl (stereo unspecified),> 100 µM,–,> 100 µM,> 100 µM,–,–,> 100 µM,–,> 100 µM,> 100 µM,–,–,–,–,–,–,–,–,–,–
Cc1nnc(N=Nc2c(O)[nH]c3c(Cl)cc(Cl)cc23)n1N,> 100 µM,–,> 100 µM,> 100 µM,–,–,> 100 µM,–,> 100 µM,> 100 µM,–,–,–,–,–,–,–,–,–,–
C#Cc1c(C)c(/C=C/C(C)=C/C=C/C(C)=C/C(=O)OC)n(C)c1C,> 100 µM,–,> 100 µM,> 100 µM,–,–,> 100 µM,–,> 100 µM,> 100 µM,–,–,–,–,–,–,–,–,–,–
COc1ccc(/C=C/C(=O)C(C)(C)CN2CCCCC2)cc1,74.3 µM,–,33 µM,32.2 µM,–,–,47.9 µM,–,40.3 µM,53.4 µM,–,–,–,–,–,–,–,–,–,–
COc1cccc(NC(=O)C(C)(C)C)c1C=O,> 100 µM,–,> 100 µM,> 100 µM,–,–,> 100 µM,–,> 100 µM,> 100 µM,–,–,–,–,–,–,–,–,–,–
CN(C)c1ncnc2c1Cc1ccccc1C(=O)N2C,> 100 µM,–,> 100 µM,> 100 µM,–,–,> 100 µM,–,> 100 µM,> 100 µM,–,–,–,–,–,–,–,–,–,–
C=CCCOC(=O)CO[N+](=O)[O-],> 100 µM,–,> 100 µM,> 100 µM,–,–,> 100 µM,–,> 100 µM,> 100 µM,–,–,–,–,–,–,–,–,–,–
Cc1ccc2c(c1)C(C)Cc1c(ncnc1-n1cnc3cc(C)ccc31)N2C (stereo unspecified),13.4 µM,0.338 µM,0.195 µM,–,12.8 µM,–,13.8 µM,16.5 µM,3.89 µM,21.1 µM,0.0421 µM,0.0281 µM,0.0302 µM,–,0.0345 µM,–,0.0407 µM,0.0434 µM,0.0406 µM,0.0866 µM
